Each structure is given as a SMILES string.

What all share (type): cell-based
The target in assay [1] is T1, human TREK-1 (Homo sapiens, UniProt O95069).
T1 construct: expressed in transfected cells
T1 sequence (O95069 1-426): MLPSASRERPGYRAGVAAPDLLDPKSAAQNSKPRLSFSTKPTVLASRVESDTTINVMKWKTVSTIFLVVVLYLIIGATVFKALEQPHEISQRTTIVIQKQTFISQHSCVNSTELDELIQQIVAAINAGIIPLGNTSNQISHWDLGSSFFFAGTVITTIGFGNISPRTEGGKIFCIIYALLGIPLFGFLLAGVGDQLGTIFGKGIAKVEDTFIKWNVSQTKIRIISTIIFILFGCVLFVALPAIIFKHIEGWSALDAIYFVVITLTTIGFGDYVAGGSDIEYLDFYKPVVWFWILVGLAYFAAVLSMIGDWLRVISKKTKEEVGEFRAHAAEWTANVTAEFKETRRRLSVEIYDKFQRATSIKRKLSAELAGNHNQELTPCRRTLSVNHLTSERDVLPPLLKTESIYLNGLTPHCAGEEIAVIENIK
The experiment in a line: TREK-1 Thallium flux assay, Method 2. Conditions: measured by Method 2 of TREK1 Thalium flux assay (footnote *12); read-out: Tl+ Assay IC50. The procedure:
CHO-K1 cells stably expressing human TREK-1 were plated in 384-well plates on the day of assay, loaded with Thallos dye. Test compounds or control compound (tert-butyl (3-((4-(benzyloxy)-2-methylphenyl)carbamoyl)-4-chlorophenyl)carbamate) or 0.3% DMSO (vehicle control) were added directly to the cell plates and incubated for 10 min, and then treated with thallium stimulus buffer to initiate thallium flux. To measure the efficacy and potency of test compounds, the change in fluorescence intensity (ΔRatio) and % inhibition were calculated using the following equations:
ΔRatio=(fluorescence intensity at 25 seconds after thallium addition)/(average of fluorescent intensity before thallium addition)

Assay [2] deals with T1, human TREK-1. Briefly: TREK-1 Manual Patch Clamp (hMPC) assay. Conditions: CHO-K1 cells stably expressing human TREK-1; whole-cell current at 0 mV. On the procedure: The term “patch clamp technique” herein refers to the “gold standard” technique for evaluating TREK channel pharmacology. The detail method is described below.
CHO-K1 cells stably expressing human TREK-1 or HEK293 cells stably expressing human TREK-2 are plated on glass coverslips, and voltage clamped in the whole-cell configuration of the patch clamp technique. Cells were voltage clamped at a holding potential of −80 mV and the stepped to 0 mV for 500 msec. The voltage was subsequently ramped from −120 mV to +80 mV over a 500 msec duration. This step-ramp protocol was repeated every 10 sec. The bathing solution contained the following: 135 mM NaCl, 5 mM KCl, 2 mM CaCl2, 1 mM MgCl2, 5 mM D-Glucose, 10 mM HEPES, 10 mM sucrose (adjusted to pH 7.4 with NaOH, 300 mosmol/kg H2O). The pipette solution contained the following: 135 mM KCl, 2 mM MgCl2, 1 mM EGTA, 10 mM HEPES, 2 mM Na2ATP (adjusted to pH 7.35 with KOH, 285 mosmol/kg H2O). Test compounds were dissolved into the bathing solution. Experiments on TREK-2 were terminated with the addition of the control compound (tert-butyl (3-((4-(benzyloxy)-2-methylphenyl)carbamoyl)-4-chlorophenyl)carbamate) so that maximal inhibition could be determined. The effects of test compound on the currents were calculated at 0 mV using the following equations:
For CHO cells expressing TREK-1 channel: % inhibition=(1-post current/pre current)×100
The compounds shown in Table 2 were prepared in an analogous manner with the appropriate starting materials, and evaluated in our TREK-1 Manual Patch Clamp (hMPC) assay.
(In patch-clamp work, channel activity is measured electrically.)

In assay [3] the target is T1, human TREK-1. The experiment in a line: TREK-1 Thallium (Tl+) flux assay, Method 1. As to conditions: TREK-1 Thallium (Tl+) flux assay; values without footnote *12 are Method 1. In short, it runs like this:
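Readout: Thallos fluorescence ratio, taken 25 s post-thallium relative to the pre-thallium baseline average, then converted to % inhibition. Cells were CHO-K1 stably expressing human TREK-1, dye-loaded and exposed to test compound (vehicle 0.3% DMSO) for 10 min prior to thallium stimulation.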

For `Cc1cc(C#Cc2ccccc2)cnc1NC(=O)c1c(Cl)cnn1[C@H]1CCN(C(=O)C2CC2)C1` [Compound 454, 4-chloro-1-[(3S)-1-(cyclopropanecarbonyl)pyrrolidin-3-yl]-N-[3-methyl-5-(phenylethynyl)pyridin-2-yl]-1H-pyrazole-5-carboxamide], the IC50 in assay [1] was 130 nM; in assay [2] it was 100 nM.
In the case of `Cc1cc(C#Cc2ccccc2)cnc1NC(=O)c1c(Cl)cnn1[C@H]1CCn2nccc2C1` (single isomer, unassigned) [Compound 456, 4-chloro-N-[3-methyl-5-(phenylethynyl)pyridin-2-yl]-1-[(5S)-4,5,6,7-tetrahydropyrazolo[1,5-a]pyridin-5-yl]-1H-pyrazole-5-carboxamide or 4-chloro-N-[3-methyl-5-(phenylethynyl)pyridin-2-yl]-1-[(5R)-4,5,6,7-tetrahydropyrazolo[1,5-a]pyridin-5-yl]-1H-pyrazole-5-carboxamide], in assay [1], the IC50 turned out to be 120 nM.
With `CC(=O)N1CCC(n2ncc(Cl)c2C(=O)Nc2ncc(C#Cc3ccc(F)cc3)cc2C)CC1` [Compound 8, 1-(1-acetylpiperidin-4-yl)-4-chloro-N-(5-((4-fluorophenyl)ethynyl)-3-methylpyridin-2-yl)-1H-pyrazole-5-carboxamide], the IC50 in assay [3] was found to be 200 nM; in assay [2] it was 90 nM.
The matching figures for `CC(=O)N1CCC(n2ncc(Cl)c2C(=O)Nc2ncc(C#Cc3ccc(F)cc3)cc2C)[C@H](F)C1` (stereo in doubt) [Compound 10, 1-((3R,4R)-1-acetyl-3-fluoropiperidin-4-yl)-4-chloro-N-(5-((4-fluorophenyl)ethynyl)-3-methylpyridin-2-yl)-1H-pyrazole-5-carboxamide]: 110 nM and 60 nM.
For `Cc1cc(C#Cc2ccccc2)cnc1NC(=O)c1c(Cl)cnn1[C@H]1CCn2nccc2C1` (single isomer, unassigned) [Compound 457, 4-chloro-N-[3-methyl-5-(phenylethynyl)pyridin-2-yl]-1-[(5S)-4,5,6,7-tetrahydropyrazolo[1,5-a]pyridin-5-yl]-1H-pyrazole-5-carboxamide or 4-chloro-N-[3-methyl-5-(phenylethynyl)pyridin-2-yl]-1-[(5R)-4,5,6,7-tetrahydropyrazolo[1,5-a]pyridin-5-yl]-1H-pyrazole-5-carboxamide], the IC50 in assay [1] was 37 nM.
Turning to `CC(=O)N1CC(F)(Cn2ncc(Cl)c2C(=O)Nc2ncc(C#Cc3ccccc3)cc2F)C1` [Compound 140, 1-((1-acetyl-3-fluoroazetidin-3-yl)methyl)-4-chloro-N-(3-fluoro-5-(phenylethynyl)pyridin-2-yl)-1H-pyrazole-5-carboxamide], the IC50 in assay [3] was determined as 220 nM; in assay [2], 130 nM.
Take `Cc1cc(C#Cc2ccccc2)cnc1NC(=O)c1c(Cl)cnn1[C@@H]1CCN(C(=O)C2CC2)C1` [Compound 455, 4-chloro-1-[(3R)-1-(cyclopropanecarbonyl)pyrrolidin-3-yl]-N-[3-methyl-5-(phenylethynyl)pyridin-2-yl]-1H-pyrazole-5-carboxamide]: in assay [1], the concentration for half-maximal inhibition (IC50) was found to be 140 nM.
As to `CC(=O)N1CCC([C@H](C)n2ncc(Cl)c2C(=O)Nc2ncc(C#Cc3ccccc3)cc2C)CC1` [Compound 16, (S)-1-(1-(1-acetylpiperidin-4-yl)ethyl)-4-chloro-N-(3-methyl-5-(phenylethynyl)pyridin-2-yl)-1H-pyrazole-5-carboxamide], the IC50 is 100 nM in assay [3] and 160 nM in assay [2].

One may read the IC50 as the concentration needed to halve the response being measured.
